Results from patent US20160367622A1, “AGONISTS OF GUANYLATE CYCLASE USEFUL FOR THE TREATMENT OF OPIOID INDUCED DYSFUNCTIONS” (priority 2013, published 2016).
“Also recorded” adds a separate entry of the source. Positions of bridges follow the written chain, without caps; N, C: chain ends. Non-standard residues stand in square brackets, D forms with d. Residues, ends and D or L forms follow the SMILES beside them.

What was measured:
[1] = test system: female Sprague-Dawley CD rats; assay: methadone-induced constipation in rats (fecal output); type: in vivo, rat; conditions: methadone 2.5 mg/kg IP daily 9 days; SP-333 2.5, 5.0 and 10 mg/kg oral daily
[2] = test system: female Sprague-Dawley CD rats; assay: as above; type: in vivo, rat
Method: To identify the methadone dose that induces constipation in rats, female Sprague-Dawley CD rats 7 to 8 weeks of age (n=6/group) were administered 0 (vehicle), 2.5, 5, and 7.5 mg/kg of methadone (1.5 ml/kg dose volume) by IP injection once a day for 5 days. Fecal pellets were collected at 4 h intervals during the light cycle and average number of pellets was recorded for each group during the course of the study following daily dose administrations of methadone.
To evaluate the ability of SP-333 to relieve methadone-induced constipation, female Sprague-Dawley CD rats 7 to 8 weeks of age (n=7/group) were administered 5 mg/kg of methadone (or vehicle) each day for 7 days via IP injection to induce constipation. Ten minutes following the IP dose each day, an oral gavage of 2.5, and 5 mg/kg of SP-333 or vehicle (buffer) was administered. Fecal pellets were collected at 4 h intervals during the light cycle and average number of pellets recorded for each group during the course of the study following daily administration of vehicle, methadone or combination of methadone and SP-333.

[3] = test system: patients with symptoms of OIC treated for non-malignant chronic pain with opioid therapy; assay: randomized 4-week placebo-controlled dose-ranging study in OIC: safety; type: in vivo, human; conditions: for All AEs: preliminary safety top line
Description: A Randomized, 4-Week, Double-Blind, Placebo-Controlled, Dose-Ranging Study to Assess the Safety and Efficacy of Sp-333 for the Treatment of Opioid-Induced Constipation (OIC) in Patients with Non-Malignant Chronic Pain Receiving Opioid Therapy
To assess the safety and tolerability of SP-333. To evaluate the pharmacodynamic effects of SP-333. To evaluate the pharmacokinetic properties of SP-333.
The primary efficacy endpoint was to determine the mean change from baseline in the number of […] (SBMs) during Week 4 of the Treatment Period. Safety was assessed by analysis of the frequency of treatment-emergent adverse events (TEAEs), adverse events leading to withdrawal, and serious adverse events (SAEs).

[4] = test system: opioid naïve animals (rats); assay: GI transit after single oral gavage dose in opioid naïve rats; type: in vivo, rat
[5] = test system: female Sprague-Dawley rats; assay: methadone-induced delay in rat GI transit (charcoal meal); type: in vivo; conditions: 2.5 mg/kg methadone IP
Method: Animals: All study procedures were conducted under a study outline approved by the Institutional Animal Care and Use Committee of MB Research Labs (Spinnerstown, Pa.) or Lampire Biological Laboratories (Pipersville, Pa.). Seven to eight week old female Sprague-Dawley rats [Crl:CD(SD)], weighing between ˜180-210 grams, were obtained from Charles River Laboratories and allowed to acclimate for a week. Animals were maintained on a 12 hour light-dark cycle. For intestinal tissue collection and evaluation of GI transit, rats were fasted for at least 18 hours before the experiment, with free access to water.
The ability of opioids to delay GI transit in rats was tested by either administering 0 (vehicle) 0.25, 1 and 2.5 mg/kg of morphine or 0 (vehicle), 0.25, 2.5 and 5 mg/kg of methadone (1.5 ml/kg dose volume) by IP injection. Water served as vehicle control. Ten minutes later, a 2 mL charcoal meal consisting of 10% activated charcoal (Sigma-Aldrich, St. Louis, Mo.) and 10% gum Arabic (Sigma-Aldrich, St. Louis, Mo.) in water was administered via oral gavage. Rats were euthanized 10 min after the charcoal meal via IP injection of 150 mg/kg Beuthanasia-D solution (sodium pentobarbital, 390 mg/mL). The small intestine was removed and the total length from the pyloric sphincter to the ileocecal junction was recorded, as well as the distance traveled by the leading edge of the charcoal. Intestinal transit was determined by calculating the ratio (expressed as a percentage) of the distance between the pyloric sphincter and the leading edge of the charcoal to the distance between the pyloric sphincter and the ileocecal junction.
To evaluate the ability of SP-333 to reverse methadone induced delayed GI transit, animals were administered 2.5 mg/kg of methadone by IP injection. Ten minutes later, an oral gavage of 0 (vehicle), 0.1, 0.5, 2.5, 5 and 50 mg/kg of SP-333 (1.5 ml/kg dose volume) was administered followed immediately by a 2 mL oral gavage of the charcoal meal. Ten minutes after the charcoal meal, animals were euthanized and intestinal transit was calculated as described above.

[6] = test system: female Sprague-Dawley CD rats; assay: GI transit delay induced by repeated methadone administration in rats; type: in vivo, rat; conditions: SP-333 oral daily
Method: The ability of SP-333 to alleviate GI transit delay induced by repeated methadone administration was also evaluated in the similar manner. Female Sprague-Dawley CD rats 7 to 8 weeks of age (n=7/group) received via IP injection 16 doses of methadone (once daily; 7 doses @ 5 mg/kg and 9 doses @ 2.5 mg/kg). Ten minutes following each methadone dose, each group received an oral gavage of vehicle, 2.5, and 5 mg/kg of SP-333. At the end of the dosing regimen, animals were fasted overnight and GI transit was evaluated as described above.

Structure (SMILES): CC(C)C[C@@H]1NC(=O)[C@H](CCC(=O)O)NC(=O)[C@@H](NC(=O)[C@H](CCC(=O)O)NC(=O)[C@H](CC(=O)O)NC(=O)[C@H](N)CC(N)=O)CSSC[C@@H]2NC(=O)[C@H](C)NC(=O)[C@H](C(C)C)NC(=O)[C@H](CC(N)=O)NC(=O)[C@H](C(C)C)NC(=O)[C@H](CSSC[C@@H](C(=O)N[C@H](CC(C)C)C(=O)O)NC(=O)CNC(=O)[C@H]([C@@H](C)O)NC2=O)NC1=O [SP-333, dAsn^1-Asp^2-Glu^3-Cys^4-Glu^5-Leu^6-Cys^7-Val^8-Asn^9-Val^10-Ala^11-Cys^12-Thr^13-Gly^14-Cys^15-dLeu^16] (H-[dN]DECELCVNVACTGC[dL]-OH; disulfide 4-12, 7-15)
- average number of pellets compared to the methadone dosed group [1]: higher compared to the methadone dosed group
- pellet count compared to the methadone dosed group ([2]; SP-333 2.5 mg/kg oral daily 10 min after methadone (5 mg/kg 7 days, then 2.5 mg/kg days 8-16)): threefold increase; also recorded: significantly relieved methadone-induced constipation
- average number of pellets / fecal output compared to the methadone dosed group ([2]; SP-333 2.5 and 5 mg/kg oral daily after methadone (5 mg/kg 7 days, then 2.5 mg/kg days 8-16)): partially restored fecal output; also recorded: higher compared to the methadone dosed group
- increase in Isc (rat jejunum tissue; 0.01-10 μM at mucosal surface of rat jejunum): concentration-dependent increase in Isc approaching saturation at 10 μM
- stimulation of Isc (rat jejunum tissue; treatment from the basolateral chamber, rat jejunum tissues): did not stimulate Isc
- Diarrhea ([3]; 1 mg (n 74)): 3 (4%) n (%)
- Diarrhea Drop ([3]; 1 mg (n 74)): 0 (0%) n (%)
- Drops for AE ([3]; 1 mg (n 74)): 1 (1.4%) n (%)
- All AEs ([3]; 1 mg (n 74)): 19 (25.7%) n (%)
- patients with TEAE leading to study treatment discontinuation ([3]; 1 mg group): 1.4%
- Diarrhea ([3]; 3 mg (n 70)): 4 (5.4%) n (%)
- Diarrhea Drop ([3]; 3 mg (n 70)): 0 (0%) n (%)
- Drops for AE ([3]; 3 mg (n 70)): 2 (2.9%) n (%)
- serious adverse events: Chest Pain ([3]; 3 mg (n 70)): 1 (1.4%) n (%)
- All AEs ([3]; 3 mg (n 70)): 16 (22.9%) n (%)
- patients with TEAE leading to study treatment discontinuation ([3]; 3 mg group): 2.9%
- Diarrhea ([3]; 6 mg (n 72)): 7 (9.7%) n (%)
- Diarrhea Drop ([3]; 6 mg (n 72)): 2 (2.9%) n (%)
- Drops for AE ([3]; 6 mg (n 72)): 5 (6.9%) n (%)
- serious adverse events: Death (metastatic HCC) ([3]; 6 mg (n 72)): 1 (1.4%) n (%)
- All AEs ([3]; 6 mg (n 72)): 23 (31.9%) n (%)
- patients with TEAE leading to study treatment discontinuation ([3]; 6 mg group): 6.9%
- percentage of patients experiencing at least 1 TEAE ([3]; SP-333 1 mg (placebo 27.4%)): 25.7%
- percentage of patients experiencing at least 1 TEAE ([3]; SP-333 3 mg (placebo 27.4%)): 22.9%
- percentage of patients experiencing at least 1 TEAE ([3]; SP-333 6 mg (placebo 27.4%)): 31.9%
- most frequently reported TEAE ([3]; in vivo): diarrhea
- increase in Isc (T84 cells monolayer; 0.01-10 μM at mucosal surface of T84 cells): concentration-dependent increase in Isc approaching saturation at 10 μM
- stimulation of Isc (T84 cells monolayer; treatment from the basolateral chamber, T84 monolayer): did not stimulate Isc
- increase in small intestinal (GI) transit compared to vehicle controls ([4]; 0.05 mg/kg single oral gavage): 5.6%
- increase in small intestinal (GI) transit compared to vehicle controls ([4]; 0.5 mg/kg single oral gavage): 13%
- increase in small intestinal (GI) transit compared to vehicle controls ([4]; 5 mg/kg single oral gavage): 23%
- GI transit in methadone-treated rats ([5]; then SP-333 0.5 mg/kg oral gavage): 40%
- GI transit in methadone-treated rats ([5]; then SP-333 2.5 mg/kg oral gavage): 39%
- GI transit in methadone-treated rats ([5]; then SP-333 5 mg/kg oral gavage): 44%
- GI transit in methadone-treated rats ([5]; then SP-333 50 mg/kg oral gavage): 52%
- GI-transit delay caused by repeated methadone dosing ([6]; 16 daily methadone doses (7 at 5 mg/kg, 9 at 2.5 mg/kg)): normalized GI transit; also recorded: relieved the GI-transit delay; also recorded: relieves methadone-induced GI transit delay; also recorded: statistically significant improvement in GI transit delay
- GI-transit delay caused by repeated methadone dosing ([6]; methadone 2.5 mg/kg IP daily 9 days): relieved the GI-transit delay
